Assay results: patent publication US8608842B2, “Infrared absorbing composition, infrared absorbing ink, recorded article, image recording method, and image detecting method” (FUJIFILM Corporation, priority 2010, dated 2013)

What was measured:
Format in all cases: physicochemical
[1] = Ultraviolet curable ink of Example 4: reflected light of mark for copy protection, before and after xenon irradiation; conditions: xenon light of 70,000 lux, 72 hours; variation compared to the value before irradiation
Experimental: By mixing the components of the composition shown below, an ultraviolet curable ink having an infrared absorbing property was prepared.
By using the ultraviolet curable ink thus obtained, a mark for copy protection was printed on the same base paper as that used in Example 1 by Gravure printing. On top of the printed mark for copy protection, each of the three kinds of a process ink (FDOL Yellow, FDOL Magenta, and FDOL Cyan, trade names, manufactured by TOYO INK MFG. CO., LTD.) was applied as a layer by Gravure printing, or a mixture ink in which the three kinds of a process ink are mixed was applied as a layer by Gravure printing to hide the mark for copy protection, thus obtaining a printed article.
The mark for copy protection that is hidden by the process ink was irradiated with infrared light using a linear sensor (trade name: TCD1500C, manufactured by Toshiba) in which the infrared cut-off filter of linear sensor was replaced with an infrared transmitting filter (trade name: IR83, manufactured by Hoya) as a detection device, and the reflected light was detected simultaneously.
The reflection light intensity in the area of the mark for copy protection at the time of detecting the mark was divided by the reflection light intensity of the area outside the mark for copy protection. The resulting value of the comparative infrared absorbing agent A was set to 1, and a ratio of the resulting value with respect to the resulting value of the comparative infrared absorbing agent A was calculated for each compound.
In addition, the obtained printed article was irradiated continuously with xenon light of 70,000 lux for 72 hours by using a Xenon lamp. After the irradiation, similar to above, the reflection light intensity of the area of the mark for copy protection was divided by the reflection light intensity of the area outside the mark for copy protection, and the variation ratio [%] compared to the value before the irradiation was calculated to use it as an index for evaluation of light resistance.

[2] = Solubility of IR coloring material in toluene at 25° C.; conditions: toluene, 25° C.
Experimental: Specifics are as follows.
First, a tetrahydrofuran (THF) solution prepared by adding the IR coloring material to TI-IF is measured by a spectrophotometer and a calibration curve is constructed. Next, a liquid is prepared by adding the IR coloring material to toluene to the level that there is a part of the coloring material left undissolved. The resulting liquid is subjected to ultrasonication for 10 minutes while being maintained at 25° C., and allowed to stand overnight at 25° C. The THF solution obtained after the standing is filtered using a 0.2 μm filter. The filtrate is diluted so that it falls within the linear range of the calibration curve, the absorbance is measured, and quantification is made using the calibration curve.
The solubility shown in Table 1 was measured according to the method described below. Specifics are as follows.
First, the THF solution prepared by adding the IR coloring material to tetrahydrofuran (THF) was measured by a spectrophotometer, and the calibration curve was established. Next, a liquid was prepared by adding the IR coloring material to toluene to the level that there is a part of coloring material left undissolved. The resulting liquid was subjected to ultrasonication for 10 minutes while being kept at 25° C., and allowed to stand overnight at 25° C. The THF solution obtained after the standing was filtered using a 0.2 μm filter. The filtrate was diluted so that it falls within the linear range of the calibration curve, and the absorbance was measured. Based on the measured value, the solubility was quantified using the calibration curve.

[3] = Bar code pattern reading (PCS) of printed article before and after xenon light irradiation (light resistance); conditions: xenon light of 70,000 lux, 200 hours
Experimental: By mixing the components of the composition shown below, the infrared absorbing printing ink (1) was prepared.
By using each of the infrared absorbing printing ink obtained above, a bar code pattern was formed on a regular paper (trade name: MP-120, manufactured by PLUS Corporation), i.e., a base paper, by Gravure printing.
Subsequently, on the formed bar code pattern, another bar code pattern was additionally formed by using the infrared absorbing ink (2) having the composition shown below.
Next, on top of the bar code patterns formed by disposing two layers, three kinds of process inks having infrared transmittance (FDOL Yellow, FDOL Magenta, and FDOL Cyan, manufactured by TOYO INK MFG. CO., LTD. (trade names, manufactured by TOYO INK MFG. CO., LTD.) were further applied by Gravure printing to form a colored layer made of three visible colors (cyan, magenta, and yellow). As a result, a printed article having a bar code pattern disposed inside the matter was produced.
Two kinds of semiconductor laser beam having wavelengths of 830 nm and 905 nm respectively were irradiated onto the thus obtained printed article, and the detection was made by using a filter which cuts off the emission light having wavelength of 950 nm or less. As a result, it was possible to detect the pattern formed by the infrared absorbing ink.
Subsequently, xenon light of 70,000 lux was irradiated continuously for 200 hours onto the printed article by using a xenon lamp. After that, the reading state of the bar code pattern after the irradiation was evaluated. For the evaluation, PCS (print•contrast•signal) of 0.6 or more was evaluated as “good,” and PCS (print•contrast•signal) of less than 0.6 was evaluated as “bad.” The evaluation results are shown in Table 2 below.
The printed article was prepared in the same manner as Example 1 except that the solvent (a mixture solvent of toluene and methyl isobutyl ketone) in the composition of the infrared absorbing ink (1) and (2) is replaced with n-octane (SP value: 7.6), butyl acetate (SP value: 8.5), or isopropyl alcohol (IPA; SP values: 11.5), and evaluated.
The comparative printed article was prepared in the same manner as Example 1 except that the solvent (a mixture solvent of toluene and methyl isobutyl ketone) in the composition of the infrared absorbing ink (1) and (2) is replaced with n-pentane (SP value: 7.0; Example 2) or ethanol (SP value: 12.7; Example 3), and evaluated.

Variation amount after irradiation [%] [1]: 4% | Solubility [mg/ml] Solvent: toluene [2]: 1.75 mg/mL
SMILES: CCOc1c2c(c(OCC)c3ccccc13)-c1nc-2nc2[n-]c(nc3nc(nc4[n-]c(n1)c1c(OCC)c5ccccc5c(OCC)c41)-c1c-3c(OCC)c3ccccc3c1OCC)c1c(OCC)c3ccccc3c(OCC)c21.[Cu+2] [Compound 23]
Reading after irradiation ([3]; Example 2, ink solvent n-pentane (SP value: 7.0)): Bad (PCS (print•contrast•signal) of less than 0.6 was evaluated as “bad.”) | Reading after irradiation ([3]; Example 3, ink solvent ethanol (SP value: 12.7)): Bad (PCS (print•contrast•signal) of less than 0.6 was evaluated as “bad.”) | Reading after irradiation ([3]; ink solvent IPA (SP value: 11.5)): Good (PCS (print•contrast•signal) of 0.6 or more was evaluated as “good,”) | Reading after irradiation ([3]; ink solvent butyl acetate (SP value: 8.5)): Good (PCS (print•contrast•signal) of 0.6 or more was evaluated as “good,”) | Reading after irradiation ([3]; ink solvent n-octane (SP value: 7.6)): Good (PCS (print•contrast•signal) of 0.6 or more was evaluated as “good,”) | Reading after irradiation ([3]; ink solvent toluene/methyl isobutyl ketone = 70/30): Good (PCS (print•contrast•signal) of 0.6 or more was evaluated as “good,”)
